The IC50 is the point on the concentration scale where inhibition reaches its midpoint. The term Ki denotes the dissociation constant of the complex between target and ligand, obtained from inhibition or displacement.

Here are results for 13 compounds from ChEMBL document CHEMBL1909046, “DrugMatrix in vitro pharmacology data”.

Assay [1] deals with T1, 3-hydroxy-3-methylglutaryl-coenzyme A reductase (Homo sapiens, UniProt P04035).
T1 sequence (P04035 whole entry): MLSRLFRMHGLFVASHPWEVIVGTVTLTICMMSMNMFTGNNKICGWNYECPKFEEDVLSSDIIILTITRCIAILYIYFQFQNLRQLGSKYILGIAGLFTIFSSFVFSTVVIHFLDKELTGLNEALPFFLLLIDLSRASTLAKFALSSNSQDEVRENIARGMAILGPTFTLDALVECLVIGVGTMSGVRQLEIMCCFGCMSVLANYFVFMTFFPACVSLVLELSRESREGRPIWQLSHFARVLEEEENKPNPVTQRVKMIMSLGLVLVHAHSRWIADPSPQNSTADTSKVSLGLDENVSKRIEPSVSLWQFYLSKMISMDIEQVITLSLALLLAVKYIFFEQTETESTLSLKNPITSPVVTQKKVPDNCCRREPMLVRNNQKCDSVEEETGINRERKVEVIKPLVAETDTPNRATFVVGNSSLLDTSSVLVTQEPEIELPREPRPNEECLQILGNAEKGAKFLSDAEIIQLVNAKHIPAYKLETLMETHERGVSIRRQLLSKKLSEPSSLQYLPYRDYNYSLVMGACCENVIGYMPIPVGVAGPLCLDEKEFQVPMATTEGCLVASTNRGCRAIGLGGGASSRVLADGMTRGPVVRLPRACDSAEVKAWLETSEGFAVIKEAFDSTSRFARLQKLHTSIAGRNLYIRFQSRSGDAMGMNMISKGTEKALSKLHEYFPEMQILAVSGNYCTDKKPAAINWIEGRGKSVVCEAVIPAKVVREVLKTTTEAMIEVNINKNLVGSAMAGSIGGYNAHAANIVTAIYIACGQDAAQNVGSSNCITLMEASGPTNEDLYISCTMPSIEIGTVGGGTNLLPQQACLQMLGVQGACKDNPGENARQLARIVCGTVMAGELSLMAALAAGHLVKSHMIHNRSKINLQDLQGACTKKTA
Set-up: species or system Escherichia coli.

Assay [2] is described as follows: DRUGMATRIX: GABAA, Flunitrazepam, Central radioligand binding (ligand: [3H] Flunitrazepam). It is filed as cell membranes, Rattus norvegicus, Wistar, Brain, Membrane. Particulars: Not Active = under 50% inhibition at 10 µM.
Assay [3] can be described thus: DRUGMATRIX: beta-Lactamase enzyme inhibition (substrate: Nitrocefin). Set-up: species or system Bacillus cereus. Particulars: Not Active = under 50% inhibition at 10 µM.
The target in assay [4] is T2, C-C chemokine receptor type 4 (Homo sapiens, UniProt P51679). Also: in other assays of this panel Not Active means under 50% inhibition at 10 µM.
T2 sequence (P51679 whole entry): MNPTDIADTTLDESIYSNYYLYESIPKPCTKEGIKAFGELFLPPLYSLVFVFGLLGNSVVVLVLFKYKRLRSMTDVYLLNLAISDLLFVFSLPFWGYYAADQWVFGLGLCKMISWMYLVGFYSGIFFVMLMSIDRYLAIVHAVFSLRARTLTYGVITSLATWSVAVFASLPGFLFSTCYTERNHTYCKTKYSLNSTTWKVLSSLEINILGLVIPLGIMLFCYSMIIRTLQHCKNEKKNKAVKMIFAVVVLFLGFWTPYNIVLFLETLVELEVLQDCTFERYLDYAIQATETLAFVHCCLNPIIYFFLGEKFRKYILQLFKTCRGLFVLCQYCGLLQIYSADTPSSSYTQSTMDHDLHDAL
The class given is cell membranes, Membrane. Particulars: chem-1.

Assay [5] has as its target T3, 5-hydroxytryptamine receptor 2C (Homo sapiens, UniProt P28335).
T3 sequence (P28335 whole entry): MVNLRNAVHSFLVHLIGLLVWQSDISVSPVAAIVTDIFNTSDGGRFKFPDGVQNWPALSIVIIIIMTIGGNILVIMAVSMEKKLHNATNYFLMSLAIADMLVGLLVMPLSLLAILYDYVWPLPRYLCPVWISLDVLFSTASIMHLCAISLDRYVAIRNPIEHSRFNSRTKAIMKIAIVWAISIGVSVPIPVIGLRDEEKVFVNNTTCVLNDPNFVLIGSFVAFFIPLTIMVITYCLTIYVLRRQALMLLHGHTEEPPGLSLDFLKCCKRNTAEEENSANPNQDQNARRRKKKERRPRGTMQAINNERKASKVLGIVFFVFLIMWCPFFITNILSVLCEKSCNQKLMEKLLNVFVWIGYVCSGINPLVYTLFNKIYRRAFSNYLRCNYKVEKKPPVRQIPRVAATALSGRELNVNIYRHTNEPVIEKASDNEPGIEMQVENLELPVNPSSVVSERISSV
The experiment in a line: DRUGMATRIX: Serotonin (5-Hydroxytryptamine) 5-HT2C radioligand binding (ligand: [3H] Mesulergine). It is filed as cell membranes, CHO-K1, Membrane. The following applies: Not Active = under 50% inhibition at 10 µM; for Ki: read-out: Ki.

Assay [6] concerns the target T4, Interstitial collagenase (Homo sapiens, UniProt P03956).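 Also: MMP-1 enzyme inhibition assay using a peptide substrate; in other assays of this panel Not Active means under 50% inhibition at 10 µM.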
T4 sequence (P03956 whole entry): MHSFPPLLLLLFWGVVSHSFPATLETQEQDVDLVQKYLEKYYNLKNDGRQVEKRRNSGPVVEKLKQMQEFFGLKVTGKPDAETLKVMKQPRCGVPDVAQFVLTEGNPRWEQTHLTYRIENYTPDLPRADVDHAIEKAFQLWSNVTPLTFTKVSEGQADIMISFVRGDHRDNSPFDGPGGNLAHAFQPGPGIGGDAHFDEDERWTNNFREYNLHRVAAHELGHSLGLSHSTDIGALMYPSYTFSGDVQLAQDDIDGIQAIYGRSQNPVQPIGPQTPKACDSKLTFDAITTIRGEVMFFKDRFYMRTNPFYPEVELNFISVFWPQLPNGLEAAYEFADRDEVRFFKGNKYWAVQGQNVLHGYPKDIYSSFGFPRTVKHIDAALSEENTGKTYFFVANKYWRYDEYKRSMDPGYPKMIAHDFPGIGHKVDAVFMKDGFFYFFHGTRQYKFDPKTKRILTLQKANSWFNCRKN
In words: biochemical. The class given is tissue-based, Rheumatoid synovial fibroblasts.

Assay [7] is described as follows: DRUGMATRIX: Glutamate, AMPA radioligand binding (ligand: [3H] AMPA). The class given is cell membranes, Rattus norvegicus, Wistar, Cerebral cortex, Membrane. Particulars: Not Active = under 50% inhibition at 10 µM.

Structures are written as SMILES.

With `O=C(O)CC(O)(CC(=O)O)C(=O)O` [CITRIC ACID], the half-inhibitory concentration (IC50) result in assay [1], in assay [2], in assay [3], in assay [4], in assay [5] (cho-k1) and in assay [6] was “Not Active” in each case. The IC50 result in assay [7] is “Not Active”. Besides, the Ki result in assay [2], in assay [3] and in assay [7] was “Not Active” each time.

For `CC(C)NCC(O)c1ccccc1Cl` (configuration not stated) [CLORPRENALINE], the IC50 entry in assay [1], in assay [2], in assay [3], in assay [4], in assay [5] (cho-k1) and in assay [6] was “Not Active” throughout. The half-inhibitory concentration (IC50) result in assay [7] is listed as “Not Active”. The Ki entry in assay [2], in assay [3] and in assay [7] was “Not Active” throughout.

In the case of `CN1CCN(C(c2ccccc2)c2ccccc2)CC1` [CYCLIZINE], the concentration for half-maximal inhibition (IC50) result in assay [1] is “Not Active”; in assay [2], “Not Active”; in assay [3] it was “Not Active”; in assay [4], “Not Active”; in assay [5] (read-out: IC50), 1020 nM; in assay [6] it was “Not Active”. The IC50 entry in assay [7] was “Not Active”. Besides, the Ki result in assay [2] is “Not Active”; in assay [3] it was “Not Active”; in assay [5], 535 nM; in assay [7], “Not Active”.

As to `CN1C[C@@H]2C[C@H]1CN2c1cc2c(cc1F)c(=O)c(C(=O)O)cn2C1CC1` [DANOFLOXACIN], the 50% inhibitory concentration (IC50) entry in assay [1], in assay [2], in assay [3], in assay [4], in assay [5] (cho-k1) and in assay [6] was “Not Active” each time. The half-maximal inhibitory concentration (IC50) result in assay [7] is recorded as “Not Active”. Also, the Ki result in assay [2], in assay [3] and in assay [7] was “Not Active” throughout.

Turning to `COc1cccc2c1C(=O)c1c(O)c3c(c(O)c1C2=O)C[C@@](O)(C(C)=O)C[C@@H]3O[C@H]1C[C@H](N)[C@H](O)[C@H](C)O1` [DAUNORUBICIN], the IC50 entry in assay [1], in assay [2], in assay [3], in assay [4], in assay [5] (cho-k1) and in assay [6] was “Not Active” each time. For the same compound, the half-maximal inhibitory concentration (IC50) entry in assay [7] is reported as “Not Active”. In addition, the Ki result in assay [2], in assay [3] and in assay [7] was “Not Active” throughout.

Consider `O=C(O)c1cc(-c2ccc(F)cc2F)ccc1O` [DIFLUNISAL], for which the IC50 entry in assay [1], in assay [2], in assay [3], in assay [4], in assay [5] (cho-k1) and in assay [6] was “Not Active” each time. The half-inhibitory concentration (IC50) result in assay [7] is “Not Active”. The Ki entry in assay [2], in assay [3] and in assay [7] was “Not Active” each time.

On to `C[S+](C)[O-]` [DIMETHYL SULFOXIDE], for which the IC50 result in assay [1], in assay [2], in assay [3], in assay [4], in assay [5] (cho-k1) and in assay [6] was “Not Active” throughout. For the same compound, the half-inhibitory concentration (IC50) entry in assay [7] is listed as “Not Active”. Also, the Ki entry in assay [2], in assay [3] and in assay [7] was “Not Active” in each case.

As to `CC1=NN(c2ccccc2)C(=O)C1` [EDARAVONE], the IC50 entry in assay [1], in assay [2], in assay [3], in assay [4], in assay [5] (cho-k1) and in assay [6] was “Not Active” throughout. In assay [7], the IC50 entry is listed as “Not Active”. The Ki entry in assay [2], in assay [3] and in assay [7] was “Not Active” throughout.

On to `CC(C)C[C@H]1C(=O)N2CCC[C@H]2[C@]2(O)O[C@](NC(=O)[C@@H]3C=C4c5cccc6[nH]cc(c56)C[C@H]4N(C)C3)(C(C)C)C(=O)N12` [ERGOCRYPTINE], for which the IC50 entry in assay [1] is “Not Active”; in assay [2], “Not Active”; in assay [3] it was “Not Active”; in assay [4] it was “Not Active”; in assay [5] (read-out: IC50), 147 nM; in assay [6] it was “Not Active”. For the same compound, the concentration for half-maximal inhibition (IC50) result in assay [7] was “Not Active”. Also, the Ki entry in assay [2] is “Not Active”; in assay [3] it was “Not Active”; in assay [5] it was 77 nM; in assay [7], “Not Active”.

Consider `C[C@]12CC[C@@H]3c4ccc(O)cc4CC[C@H]3[C@@H]1C[C@@H](O)[C@@H]2O` [ESTRIOL], for which the IC50 entry in assay [1], in assay [2], in assay [3], in assay [4], in assay [5] (cho-k1) and in assay [6] was “Not Active” throughout. Further, the IC50 entry in assay [7] was “Not Active”. The inhibition constant Ki entry in assay [2], in assay [3] and in assay [7] was “Not Active” in each case.

Take `C#C[C@]1(O)CC[C@H]2[C@@H]3CCC4=CC(=O)CC[C@]4(C)[C@H]3CC[C@@]21C` [ETHISTERONE]: the IC50 entry in assay [1], in assay [2], in assay [3], in assay [4], in assay [5] (cho-k1) and in assay [6] was “Not Active” each time. Further, the IC50 result in assay [7] is given as “Not Active”. The inhibition constant (Ki) entry in assay [2], in assay [3] and in assay [7] was “Not Active” throughout.

Regarding `CC(O)(P(=O)(O)O)P(=O)(O)O` [ETIDRONIC ACID], the 50% inhibitory concentration (IC50) entry in assay [1], in assay [2], in assay [3], in assay [4], in assay [5] (cho-k1) and in assay [6] was “Not Active” throughout. Moreover, in assay [7], the IC50 result is reported as “Not Active”. Moreover, the Ki result in assay [2], in assay [3] and in assay [7] was “Not Active” in each case.

`CC(C)(C(=O)O)c1ccc(C(O)CCCN2CCC(C(O)(c3ccccc3)c3ccccc3)CC2)cc1` (configuration not stated) [FEXOFENADINE]: the concentration for half-maximal inhibition (IC50) entry in assay [1], in assay [2], in assay [3], in assay [4], in assay [5] (cho-k1) and in assay [6] was “Not Active” throughout. Besides, the IC50 result in assay [7] is recorded as “Not Active”. Also, the inhibition constant (Ki) entry in assay [2], in assay [3] and in assay [7] was “Not Active” in each case.
